From the NIST ThermoML archive (doi:10.1016/j.jct.2012.12.001)
Numbers after ± are expanded uncertainties.

Experiment: heat capacity at constant pressure per volume; xn = mol fraction of the nth substance listed
Conditions: 101 kPa, Liquid, DSC, x2 = 0.713

CCCCCCCCCCCCCCCCCC [octadecane] + N#Cc1ccccc1
Conditions	heat capacity [J/K/m3]
307.43 K	1934400 ± 20000
307.46 K	1934700 ± 20000
307.49 K	1935300 ± 20000
307.51 K	1940700 ± 20000
307.54 K	1937500 ± 20000
307.57 K	1936300 ± 20000
307.6 K	1936200 ± 20000
307.63 K	1932400 ± 20000
307.66 K	1937300 ± 20000
307.68 K	1942100 ± 20000
307.71 K	1944000 ± 20000
307.74 K	1939900 ± 20000
307.77 K	1932400 ± 20000
307.8 K	1938300 ± 20000
307.82 K	1947000 ± 20000
307.85 K	1949300 ± 20000
307.88 K	1946700 ± 20000
307.91 K	1938400 ± 20000
307.94 K	1933900 ± 20000
307.96 K	1951300 ± 20000
307.99 K	1961700 ± 20000
308.02 K	1944900 ± 20000
308.05 K	1926900 ± 20000
308.08 K	1941200 ± 20000
308.11 K	1958000 ± 20000
308.13 K	1970100 ± 20000
308.16 K	1961600 ± 20000
308.19 K	1937100 ± 20000
308.22 K	1930400 ± 20000
308.25 K	1946700 ± 20000
308.27 K	1964400 ± 20000
308.3 K	1971900 ± 20000
308.33 K	1970700 ± 20000
308.36 K	1959500 ± 20000
308.39 K	1936500 ± 20000
308.42 K	1912300 ± 21000
308.44 K	1924300 ± 20000
308.47 K	1951900 ± 20000
308.5 K	2008600 ± 20000
308.53 K	2043600 ± 20000
308.56 K	2018100 ± 20000
308.58 K	1941300 ± 20000
308.61 K	1912700 ± 20000
308.64 K	1927600 ± 20000
308.67 K	1961900 ± 20000
308.7 K	1999600 ± 20000
308.72 K	2029400 ± 20000
308.75 K	2032700 ± 20000
308.78 K	1994600 ± 20000
308.81 K	1952000 ± 20000
308.84 K	1951000 ± 20000
308.87 K	1967200 ± 20000
308.89 K	1986400 ± 20000
308.92 K	2016500 ± 20000
308.95 K	2025600 ± 20000
308.98 K	1992600 ± 20000
309 K	1977300 ± 20000
309.03 K	1975500 ± 20000
309.06 K	1984100 ± 20000
309.09 K	2003300 ± 20000
309.12 K	2020100 ± 20000
309.15 K	2018700 ± 20000
309.17 K	2001300 ± 21000
309.2 K	1997100 ± 21000
309.23 K	1999200 ± 20000
309.26 K	2022000 ± 20000
309.29 K	2056100 ± 20000
309.31 K	2064600 ± 21000
309.34 K	2035200 ± 22000
309.37 K	2025000 ± 21000
309.4 K	2039600 ± 22000
309.43 K	2070400 ± 23000
309.45 K	2095200 ± 22000
309.48 K	2108700 ± 24000
309.51 K	2150900 ± 26000
309.54 K	2201100 ± 29000
309.57 K	1939300 ± 31000
309.6 K	1869500 ± 33000
309.62 K	1848200 ± 36000
309.65 K	1833800 ± 40000
309.68 K	1826700 ± 23000
309.71 K	1819300 ± 21000
309.74 K	1817500 ± 20000
309.76 K	1810200 ± 20000
309.79 K	1806800 ± 20000
309.82 K	1803600 ± 20000
309.85 K	1800700 ± 20000
309.88 K	1798700 ± 20000
309.9 K	1794300 ± 20000
309.93 K	1792100 ± 20000
309.96 K	1792800 ± 20000
309.99 K	1790300 ± 20000
310.02 K	1787500 ± 20000
310.05 K	1785800 ± 20000
310.07 K	1787100 ± 20000
310.1 K	1782100 ± 20000
310.13 K	1784300 ± 20000
310.16 K	1779800 ± 20000
310.19 K	1779800 ± 20000
310.21 K	1778600 ± 20000
310.24 K	1778600 ± 20000
310.27 K	1775500 ± 20000
310.3 K	1773400 ± 20000
310.33 K	1772700 ± 20000
310.35 K	1774100 ± 20000
310.38 K	1771100 ± 20000
310.41 K	1773500 ± 20000
310.44 K	1771400 ± 20000
310.47 K	1770500 ± 20000
310.5 K	1768500 ± 20000
310.52 K	1769800 ± 20000
310.55 K	1768900 ± 20000
310.58 K	1766300 ± 20000
310.61 K	1764600 ± 20000
310.64 K	1764400 ± 20000
310.66 K	1764600 ± 20000
310.69 K	1763300 ± 20000
310.72 K	1763400 ± 20000
310.75 K	1765000 ± 20000
310.78 K	1762800 ± 20000
310.8 K	1762200 ± 20000
310.83 K	1757300 ± 20000
310.86 K	1761100 ± 20000
310.89 K	1760100 ± 20000
310.92 K	1760700 ± 20000
310.94 K	1761100 ± 20000
310.97 K	1760600 ± 20000
311 K	1759800 ± 20000
311.03 K	1759800 ± 20000
311.06 K	1758100 ± 20000
311.09 K	1757600 ± 20000
311.11 K	1758300 ± 20000
311.14 K	1758800 ± 20000
311.17 K	1757800 ± 20000
311.2 K	1757900 ± 20000
311.23 K	1756900 ± 20000
311.25 K	1754900 ± 20000
311.28 K	1754400 ± 20000
